# Results published in US8410153B2, “Naphthalene isoxazoline invertebrate pest control agents” (E.I. du Pont de Nemours and Company, priority 2007, dated 2013).
# Tests used:
# Format in all cases: in vivo
# [1] = test system: western flower thrips (Frankliniella occidentalis); assay: Test E: control of western flower thrips on Soleil bean plant, contact and/or systemic; settings: held 6 days
# Procedure: (§1) Test compounds were formulated using a solution containing 10% acetone, 90% water and 300 ppm X-77™ Spreader Lo-Foam Formula non-ionic surfactant containing alkylarylpolyoxyethylene, free fatty acids, glycols and isopropanol (Loveland Industries, Inc. Greeley, Colo., USA). The formulated compounds were applied in 1 mL of liquid through a SUJ2 atomizer nozzle with ⅛ JJ custom body (Spraying Systems Co. Wheaton, Ill., USA) positioned 1.27 cm (0.5 inches) above the top of each test unit. All experimental compounds in these tests were sprayed at 50 ppm, and the test was replicated three times. After spraying of the formulated test compound, each test unit was allowed to dry for 1 h and then a black, screened cap was placed on top. The test units were held for 6 days in a growth chamber at 25° C. and 70% relative humidity. Plant feeding damage was then visually assessed based on foliage consumed, and a pest mortality rating was also counted and calculated for each test unit.
# For evaluating control of the western flower thrips (Frankliniella occidentalis) through contact and/or systemic means, the test unit consisted of a small open container with a 5-7-day-old Soleil Bean plant inside. Test compounds were formulated and sprayed as described for Test A. All experimental compounds in these tests were sprayed at 250 or 50 ppm as noted, and the test was replicated three times. After spraying, the test units were allowed to dry for 1 h, 22-27 adult thrips were added to each unit and then a black, screened cap was placed on top. The test units were held for 6 days at 25° C. and 45-55% relative humidity. A mortality rating was assessed along with a plant damage rating for each test unit.
# [2] = test system: diamondback moth (Plutella xylostella); assay: Test A: control of diamondback moth on radish plant, foliar spray; settings: sprayed at 50 ppm, held 6 days
# Source text: For evaluating control of diamondback moth (Plutella xylostella) the test unit consisted of a small open container with a 12-14-day-old radish plant inside. This was pre-infested with about 50 neonate larvae that were dispensed into the test unit via corncob grits using a bazooka inoculator. The larvae moved onto the test plant after being dispensed into the test unit.
# as §1
# [3] = test system: fall armyworm (Spodoptera frugiperda); assay: Test B: control of fall armyworm on corn (maize) plant, foliar spray; settings: sprayed at 50 ppm
# Procedure: as §1
# For evaluating control of fall armyworm (Spodoptera frugiperda) the test unit consisted of a small open container with a 4-5-day-old corn (maize) plant inside. This was pre-infested (using a core sampler) with 10-15 1-day-old larvae on a piece of insect diet. Test compounds were formulated and sprayed at 50 ppm as described for Test A and replicated three times. After spraying, the test units were maintained in a growth chamber and then the control efficacy was rated for each test unit as described for Test A.
Structure (SMILES),levels of control efficacy (20% or less feeding damage or 80% or more mortality) ([1]; sprayed at 50 ppm),levels of control efficacy (20% or less feeding damage or 80% or more mortality) ([1]; sprayed at 250 ppm),levels of control efficacy (20% or less feeding damage or 80% or more mortality) [2],levels of control efficacy (20% or less feeding damage or 80% or more mortality) [3]
CC(NC(=O)c1ccc(C2=NOC(c3cc(Cl)cc(Cl)c3)(C(F)(F)F)C2)c2ccccc12)C(=O)NCC(F)(F)F (mixture of isomers) [Compound 16],very good to excellent,very good to excellent,very good to excellent,very good to excellent
CSCC(C)NC(=O)c1ccc(C2=NOC(c3cc(Cl)cc(Cl)c3)(C(F)(F)F)C2)c2ccccc12 (mixture of isomers) [Compound 29],very good to excellent,very good to excellent,very good to excellent,very good to excellent
CC(CO)NC(=O)c1ccc(C2=NOC(c3cc(Cl)cc(Cl)c3)(C(F)(F)F)C2)c2ccccc12 (mixture of isomers) [Compound 31],very good to excellent,very good to excellent,very good to excellent,very good to excellent
CC(C)NC(=O)C(C)NC(=O)c1ccc(C2=NOC(c3cc(Cl)cc(Cl)c3)(C(F)(F)F)C2)c2ccccc12 (mixture of isomers) [Compound 33],very good to excellent,very good to excellent,very good to excellent,very good to excellent
CC(O)(CNC(=O)c1ccc(C2=NOC(c3cccc(C(F)(F)F)c3)(C(F)(F)F)C2)c2ccccc12)C(F)(F)F (mixture of isomers) [Compound 45],–,–,very good to excellent,very good to excellent
CCC(CO)NC(=O)c1ccc(C2=NOC(c3cccc(C(F)(F)F)c3)(C(F)(F)F)C2)c2ccccc12 (mixture of isomers) [Compound 46],–,–,very good to excellent,very good to excellent
CC(NC(=O)c1ccc(C2=NOC(c3cc(Cl)cc(C(F)(F)F)c3)(C(F)(F)F)C2)c2ccccc12)C(=O)NCC(F)(F)F (mixture of isomers) [Compound 127],–,–,–,very good to excellent
CC(C)NC(=O)C(C)NC(=O)c1ccc(C2=NOC(c3cc(Cl)cc(C(F)(F)F)c3)(C(F)(F)F)C2)c2ccccc12 (mixture of isomers) [Compound 128],–,–,–,very good to excellent
CCCNC(=O)C(C)NC(=O)c1ccc(C2=NOC(c3cc(Cl)cc(C(F)(F)F)c3)(C(F)(F)F)C2)c2ccccc12 (mixture of isomers) [Compound 129],–,–,–,very good to excellent
CC(C)CNC(=O)C(C)NC(=O)c1ccc(C2=NOC(c3cc(Cl)cc(C(F)(F)F)c3)(C(F)(F)F)C2)c2ccccc12 (mixture of isomers) [Compound 130],–,–,–,very good to excellent
CC(C)SCCNC(=O)c1ccc(C2=NOC(c3cccc(C(F)(F)F)c3)(C(F)(F)F)C2)c2ccccc12 (racemic) [Compound 55],–,–,very good to excellent,very good to excellent
CC(C)SCCCNC(=O)c1ccc(C2=NOC(c3cccc(C(F)(F)F)c3)(C(F)(F)F)C2)c2ccccc12 (racemic) [Compound 56],–,–,very good to excellent,very good to excellent
O=C(CNC(=O)c1ccc(C2=NOC(c3cc(Cl)cc(Cl)c3)(C(F)(F)F)C2)c2ccccc12)NCCCl (centres unmarked) [Compound 10],–,–,very good to excellent,very good to excellent
O=C(CNC(=O)c1ccc(C2=NOC(c3cc(Cl)cc(Cl)c3)(C(F)(F)F)C2)c2ccccc12)NCC(F)(F)C(F)(F)C(F)(F)F (centres unmarked) [Compound 13],–,–,very good to excellent,very good to excellent
O=C(CNC(=O)c1ccc(C2=NOC(c3cc(Cl)cc(Cl)c3)(C(F)(F)F)C2)c2ccccc12)NCC(F)(F)C(F)(F)F (centres unmarked) [Compound 14],–,–,very good to excellent,very good to excellent
CCC(O)CNC(=O)c1ccc(C2=NOC(c3cccc(C(F)(F)F)c3)(C(F)(F)F)C2)c2ccccc12 (centres unmarked) [Compound 64],–,–,very good to excellent,very good to excellent
CC(CO)NC(=O)c1ccc(C2=NOC(c3cc(C(F)(F)F)cc(C(F)(F)F)c3)(C(F)(F)F)C2)c2ccccc12 (centres unmarked) [Compound 68],–,–,very good to excellent,very good to excellent
O=C(NCCO)c1ccc(C2=NOC(c3cc(C(F)(F)F)cc(C(F)(F)F)c3)(C(F)(F)F)C2)c2ccccc12 (centres unmarked) [Compound 69],–,–,very good to excellent,very good to excellent
O=C(CNC(=O)c1ccc(C2=NOC(c3cccc(Br)c3)(C(F)(F)F)C2)c2ccccc12)NCC(F)(F)F (centres unmarked) [Compound 70],–,–,very good to excellent,very good to excellent
CSCCNC(=O)c1ccc(C2=NOC(c3cccc(OC(F)(F)F)c3)(C(F)(F)F)C2)c2ccccc12 (centres unmarked) [Compound 71],–,–,very good to excellent,very good to excellent
O=C(CNC(=O)c1ccc(C2=NOC(c3cccc(OC(F)(F)F)c3)(C(F)(F)F)C2)c2ccccc12)NCC(F)(F)F (centres unmarked) [Compound 72],–,–,very good to excellent,very good to excellent
O=C(NCO)c1ccc(C2=NOC(c3cc(Cl)cc(Cl)c3)(C(F)(F)F)C2)c2ccccc12 (centres unmarked) [Compound 82],–,–,very good to excellent,very good to excellent
CCCNC(=O)C(C)NC(=O)c1ccc(C2=NOC(c3cc(C(F)(F)F)cc(C(F)(F)F)c3)(C(F)(F)F)C2)c2ccccc12 (centres unmarked) [Compound 89],–,–,–,very good to excellent
CC(NC(=O)CNC(=O)c1ccc(C2=NOC(c3cc(C(F)(F)F)cc(C(F)(F)F)c3)(C(F)(F)F)C2)c2ccccc12)C(F)(F)F (centres unmarked) [Compound 91],very good to excellent,–,–,very good to excellent
CC(NC(=O)CNC(=O)c1ccc(C2=NOC(c3cc(Cl)cc(C(F)(F)F)c3)(C(F)(F)F)C2)c2ccccc12)C(F)(F)F (centres unmarked) [Compound 113],–,–,very good to excellent,very good to excellent
C[S+]([O-])CCNC(=O)c1ccc(C2=NOC(c3cc(Cl)cc(C(F)(F)F)c3)(C(F)(F)F)C2)c2ccccc12 (centres unmarked) [Compound 114],–,–,very good to excellent,very good to excellent
CC(NC(=O)c1ccc(C2=NOC(c3cc(Cl)cc(C(F)(F)F)c3)(C(F)(F)F)C2)c2ccccc12)C(=O)NC(C)C(F)(F)F (centres unmarked) [Compound 115],–,–,very good to excellent,very good to excellent
CNC(=O)CNC(=O)c1ccc(C2=NOC(c3cc(Cl)cc(C(F)(F)F)c3)(C(F)(F)F)C2)c2ccccc12 (centres unmarked) [Compound 116],–,–,very good to excellent,very good to excellent
